Experimental data as given in patent US10173991B2, “Sulfone amide linked benzothiazole inhibitors of endothelial lipase” (BRISTOL-MYERS SQUIBB COMPANY, priority 2014, dated 2019).

molecular target: Endothelial lipase (EL) (Homo sapiens (Human), UniProt Q9Y5X9); experiment: Endothelial lipase (EL) enzymatic assay with fluorescent substrate A10070 in DMPG vesicles; format: biochemical
Outline: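 Compounds were preincubated with enzyme for 30 min at 37° C before FRET-substrate vesicles (A10070 in DMPG, 0.11 mole fraction) were added. Reaction rates were obtained from the 300–900 sec slope of fluorescence at 490/530 nm.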

Sequence of Endothelial lipase (EL) (Q9Y5X9 21-500): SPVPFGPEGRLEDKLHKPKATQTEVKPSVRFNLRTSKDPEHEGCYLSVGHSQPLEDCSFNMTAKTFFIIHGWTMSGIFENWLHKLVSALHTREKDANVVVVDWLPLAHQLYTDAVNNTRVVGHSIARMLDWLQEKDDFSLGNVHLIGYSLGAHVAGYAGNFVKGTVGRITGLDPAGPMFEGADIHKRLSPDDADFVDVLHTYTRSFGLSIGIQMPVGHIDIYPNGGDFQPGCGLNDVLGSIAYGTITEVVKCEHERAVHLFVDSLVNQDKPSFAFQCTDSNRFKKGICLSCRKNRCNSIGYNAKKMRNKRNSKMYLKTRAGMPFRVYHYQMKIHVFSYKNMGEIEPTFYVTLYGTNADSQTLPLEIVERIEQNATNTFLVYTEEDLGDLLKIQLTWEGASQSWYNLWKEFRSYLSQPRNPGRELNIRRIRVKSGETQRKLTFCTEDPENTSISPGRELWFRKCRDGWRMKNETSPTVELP

Compound	IC50 [nM]
COCCS(=O)(=O)C(C(=O)NCC(=O)NC1CC1)c1nc2cc(Cl)c(-c3cncnc3)cc2s1 (stereo not drawn) [Example 112, 2-[5-chloro-6-(pyrimidin-5-yl)-1,3-benzothiazol-2-yl]-N-[(cyclopropyl-carbamoyl)methyl]-2-(2-methoxyethane-sulfonyl)acetamide]	97
CC(=O)Nc1ccc(-c2cc3nc(C(C(=O)NCC(=O)NC4CC4)S(C)(=O)=O)sc3cc2F)cc1 (stereo not drawn) [Example 113, N-[(cyclopropyl-carbamoyl)methyl]-2-[5-(4-acetamidophenyl)-6-fluoro-1,3-benzothiazol-2-yl]-2-methanesulfonyl-acetamide]	9
COC(=O)Nc1ccc(-c2cc3nc(C(C(=O)NCC(=O)NC4CC4)S(C)(=O)=O)sc3cc2F)cc1 (stereo not drawn) [Example 114, methyl N-{4-[2-({[(cyclopropyl-carbamoyl)methyl]caramoyl} (methanesulfonyl)methyl)-6-fluoro-1,3-benzothiazol-5-yl]phenyl} carbamate]	4
CC(=O)Nc1cccc(-c2cc3nc(C(C(=O)NCC(=O)NC4CC4)S(C)(=O)=O)sc3cc2F)c1 (stereo not drawn) [Example 115, N-[(cyclopropyl-carbamoyl)methyl]-2-[5-(3-acetamidophenyl)-6-fluoro-1,3-benzothiazol-2-yl]-2-methanesulfonyl-acetamide]	12
CC(=O)Nc1cccc(-c2cc3sc(C(C(=O)NCC(=O)NC4CC4)S(C)(=O)=O)nc3cc2F)c1 (stereo not drawn) [Example 116, N-[(cyclopropyl-carbamoyl)methyl]-2-[6-(3-acetamidophenyl)-5-fluoro-1,3-benzothiazol-2-yl]-2-methanesulfonyl-acetamide]	17

Now from value to compound:

IC50 [nM]	Compound
23	CC(=O)Nc1cccc(-c2ccc3nc(C(C(=O)NCC(=O)NC4CC4)S(C)(=O)=O)sc3c2)c1 (stereo not drawn) [Example 111, N-[(cyclopropyl-carbamoyl)methyl]-2-[6-(3-acetamidophenyl)-1,3-benzothiazol-2-yl]-2-methanesulfonyl-acetamide]
4	COC(=O)Nc1cccc(-c2cc3sc(C(C(=O)NCC(=O)NC4CC4)S(C)(=O)=O)nc3cc2F)c1 (stereo not drawn) [Example 117, methyl N-{3-[2-({[(cyclopropyl-carbamoyl)methyl]carbamoyl} (methanesulfonyl)methyl)-5-fluoro-1,3-benzothiazol-6-yl]phenyl} carbamate]
11	COC(=O)Nc1ccc(-c2cc3sc(C(C(=O)NCC(=O)NC4CC4)S(C)(=O)=O)nc3cc2F)cc1F (stereo not drawn) [Example 118, methyl N-{4-[2-({[(cyclopropyl-carbamoyl)methyl]carbamoyl} (methanesulfonyl)methyl)-5-fluoro-1,3-benzothiazol-6-yl]-2-fluorophenyl} carbamate]
4	COC(=O)Nc1ccc(-c2cc3sc(C(C(=O)NCC(=O)NC4CC4)S(C)(=O)=O)nc3cc2F)cc1 (stereo not drawn) [Example 120, methyl N-{4-[2-({[(cyclopropyl-carbamoyl)methyl]carbamoyl} (methanesulfonyl)methyl)-5-fluoro-1,3-benzothiazol-6-yl]phenyl} carbamate]
14	CS(=O)(=O)C(C(=O)NCC(=O)NC1CC1)c1nc2c(Cl)cc(-c3ccc(F)nc3)cc2s1 (stereo not drawn) [Example 121, 2-[4-chloro-6-(6-fluoropyridin-3-yl)-1,3-benzothiazol-2-yl]-N-[(cyclopropyl-carbamoyl)methyl]-2-methanesulfonyl-acetamide]
7	COC(=O)Nc1ccc(-c2cc3nc(C(C(=O)NCC(=O)NC4CC4)S(C)(=O)=O)sc3cc2F)cc1F (stereo not drawn) [Example 122, methyl N-{4-[2-({[(cyclopropyl-carbamoyl)methyl]carbamoyl} (methanesulfonyl)methyl)-6-fluoro-1,3-benzothiazol-5-yl]-2-fluorophenyl} carbamate]
5	COC(=O)Nc1cccc(-c2cc3nc(C(C(=O)NCC(=O)NC4CC4)S(C)(=O)=O)sc3cc2F)c1 (stereo not drawn) [Example 123, methyl N-{3-[2-({[(cyclopropyl-carbamoyl)methyl]carbamoyl} (methanesulfonyl)methyl)-6-fluoro-1,3-benzothiazol-5-yl]phenyl} carbamate]
